Experimental data taken from US20230031406A1, “COMPOUNDS AND COMPOSITIONS FOR TREATING CONDITIONS ASSOCIATED WITH NLRP ACTIVITY” (Novartis AG, priority 2018, published 2023).
Where two headings read alike, the source gives them in different places. One block for each compound: values may come before it.

Test system: PMA-differentiated THP-1 cells
Assay: IL-1β production in PMA-differentiated THP-1 cells stimulated with gramicidin (hTHP-1 assay containing 2% fetal bovine serum; Procedures 1 and 2)
Assay type: cell-based, human
Details: 2% fetal bovine serum
Procedure, shortened: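 Human monocytic THP-1 cells, matured overnight with PMA at 20 ng/ml, are seeded in low-serum (2% FBS) RPMI. Test compounds, at final concentrations from 100 down to 0.0017 μM, precede gramicidin (5 μM, 2 h) by one hour. Released IL-1β is then determined by HTRF.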

[1] = Homo sapiens, THP-1, Table B3, hTHP-1 assay, class symbols, read-out: IC50
[2] = Homo sapiens, THP-1, Table B2, class symbols, read-out: hTHP-1 IC50
[3] = Homo sapiens, THP-1, Table B2, numeric bounds, read-out: hTHP-1 IC50
[4] = Table B4, class symbols, read-out: hTHP-1 IC50
[5] = Table B2, class symbols, read-out: hTHP-1 IC50
[6] = Table B3, hTHP-1 assay, class symbols, read-out: IC50

Compound: CC(C)(O)c1ncc([S@](N)(=O)=NC(=O)Nc2c3c(nc(CC(F)(F)F)c2C2CC2)CCC3)s1 [Example 578, (R)-N′-((3-cyclopropyl-2-(2,2,2-trifluoroethyl)-6,7-dihydro-5H-cyclopenta[b]pyridin-4-yl)carbamoyl)-2-(2-hydroxypropan-2-yl)thiazole-5-sulfonimidamide]
IC50 [1]: 1000 to 5000 nM

Compound: CC(C)(O)c1cc(C#N)cc(S(N)(=O)=NC(=O)Nc2c3c(nc4c2CCC4(C)C)CCC3)c1 (single isomer, unassigned) [Compound 674a, (S) or (R)-3-Cyano-N′-((3,3-methyl-1,2,3,5,6,7-hexahydrodicyclopenta [b,e]pyridin-8-yl)carbamoyl)-5-(2-hydroxypropan-2-yl)benzene-sulfonimidamide]
IC50 [3]: > 30000 nM

Compound: CC(C)n1cc(F)c(S(N)(=O)=NC(=O)Nc2c3c(nc4c2CCC4)CCC3)n1 (single isomer, unassigned) [Example 786, (S) or (R)-4-fluoro-N′-((1,2,3,5,6,7-hexahydrodicyclopenta [b,e]pyridin-8-yl)carbamoyl)-1-isopropyl-1H-pyrazole-3-sulfonimidamide]
IC50 [4]: 5000 to 30000 nM

Compound: NS(=O)(=NC(=O)Nc1c2c(nc3c1CCC3)CCC2)c1ccn(CC(F)(F)F)n1 (centres unmarked) [Compound 685, N′-((1,2,3,5,6,7-hexahydrodicyclopenta[b,e]pyridin-8-yl)carbamoyl)-1-(2,2,2-trifluoroethyl)-1H-pyrazole-3-sulfonimidamide]
IC50 [2]: 1000 to 5000 nM

Compound: CC(C)c1cc(NC(=O)N=S(N)(=O)c2cc(C(C)(C)O)cs2)c2c(n1)CCC2 (centres unmarked) [Compound 182, 4-(2-hydroxypropan-2-yl)-N′-((2-isopropyl-6,7-dihydro-5H-cyclopenta[b]pyridin-4-yl)carbamoyl)thiophene-2-sulfonimidamide]
IC50 (Homo sapiens, THP-1, Table B1, numeric bounds, read-out: Average IC50 of compounds in hTHP-1 assay: hTHP-1 IC50): > 14000 nM

Compound: CCc1nc2c(c(NC(=O)N=S(N)(=O)c3cnc(C(C)(C)O)s3)c1C1CC1)CCC2 (single isomer, unassigned) [Compound 630b, (R) or (S)-N′-((3-cyclopropyl-2-ethyl-6,7-dihydro-5H-cyclopenta[b]pyridin-4-yl)carbamoyl)-2-(2-hydroxypropan-2-yl)thiazole-5-sulfonimidamide]
IC50 [5]: 200 to 1000 nM

Compound: Cc1c(C(F)(F)F)nc2c(c1NC(=O)N=S(N)(=O)c1sc(C(C)(C)O)cc1F)CCC2 (centres unmarked) [Compound 632, 3-Fluoro-5-(2-hydroxypropan-2-yl)-N′-((3-methyl-2-(trifluoromethyl)-6,7-dihydro-5H-cyclopenta[b]pyridin-4-yl)carbamoyl)thiophene-2-sulfonimidamide]
IC50 [2]: 200 to 1000 nM

Compound: NS(=O)(=NC(=O)Nc1c2c(nc3c1CCC3)CCC2)c1nn(C(F)F)cc1F (centres unmarked) [Example 735, 1-(Difluoromethyl)-4-fluoro-N′-((1,2,3,5,6,7-hexahydrodicyclopenta[b,e]pyridin-8-yl)carbamoyl)-1H-pyrazole-3-sulfonimidamide]
IC50 (Homo sapiens, THP-1, Table B4, class symbols, read-out: hTHP-1 IC50): 200 to 1000 nM

Compound: CC(C)n1cc(CO)c(S(N)(=O)=NC(=O)Nc2c3c(nc4c2CCC4(C)C)CCC3)n1 (centres unmarked) [Compound 682, N′-((3,3-dimethyl-1,2,3,5,6,7-hexahydrodicyclopenta [b,e]pyridin-8-yl)carbamoyl)-4-(hydroxymethyl)-1-isopropyl-1H-pyrazole-3-sulfonimidamide]
IC50 [2]: 1000 to 5000 nM

Compound: CCn1cc(F)c(S(N)(=O)=NC(=O)Nc2c3c(nc4c2CCC42CC2)CCC3)n1 (single isomer, unassigned) [Example 672, (S) or (R)-1-ethyl-4-fluoro-N′-((1′,5′,6′,7′-tetrahydro-2′H-spiro[cyclopropane-1,3'-dicyclopenta[b,e]pyridin]-8′-yl)carbamoyl)-1H-pyrazole-3-sulfonimidamide]
IC50 [6]: 1000 to 5000 nM

Compound: CC(C)(O)c1cc(F)c(S(N)(=O)=NC(=O)Nc2cc(CC(F)(F)F)nc3c2CCC3)s1 (centres unmarked) [Compound 602, 3-Fluoro-5-(2-hydroxypropan-2-yl)-N′-((2-(2,2,2-trifluoroethyl)-6,7-dihydro-5H-cyclopenta[b]pyridin-4-yl)carbamoyl)thiophene-2-sulfonimidamide]
IC50 [2]: 1000 to 5000 nM

Compound: CC(C)(O)c1cc(F)c([S@@](N)(=O)=NC(=O)Nc2cc(CC(F)(F)F)nc3c2CCC3)s1 [Compound 602a]
IC50 [3]: > 30000 nM

Compound: CCn1cc(F)c(S(N)(=O)=NC(=O)Nc2c3c(nc(C(F)(F)F)c2-c2ccccc2F)CCC3)n1 (single isomer, unassigned) [Example 779, (R) or (S)-1-ethyl-4-fluoro-N′-((3-(2-fluorophenyl)-2-(trifluoromethyl)-6,7-dihydro-5H-cyclopenta[b]pyridin-4-yl)carbamoyl)-1H-pyrazole-3-sulfonimidamide]
IC50 [4]: 8 to 40 nM

Compound: CCn1cc(F)c(S(N)(=O)=NC(=O)Nc2c3c(nc(C(F)(F)F)c2-c2ccc(F)cc2)CCC3)n1 (single isomer, unassigned) [Example 788, (S) or (R)-1-ethyl-4-fluoro-N′-((3-(4-fluorophenyl)-2-(trifluoromethyl)-6,7-dihydro-5H-cyclopenta[b]pyridin-4-yl)carbamoyl)-1H-pyrazole-3-sulfonimidamide]
IC50 [4]: 1000 to 5000 nM

The next lines start with the values.

IC50 [1]: 1000 to 5000 nM
Compound: Cc1c(C2(F)CC2)nc2c(c1NC(=O)N=S(N)(=O)c1cc(C(C)(C)O)cs1)CCC2 (single isomer, unassigned) [Example 683, (R) or (S)-N′-((2-(1-fluorocyclopropyl)-3-methyl-6,7-dihydro-5H-cyclopenta[b]pyridin-4-yl)carbamoyl)-4-(2-hydroxypropan-2-yl)thiophene-2-sulfonimidamide]

IC50 [2]: 200 to 1000 nM
Compound: COC(C)(C)c1nc(CO)c(S(N)(=O)=NC(=O)Nc2c3c(nc4c2CCC4(C)C)CCC3)s1 (single isomer, unassigned) [Compound 648a, (R) or (S)-N′-((3,3-dimethyl-1,2,3,5,6,7-hexahydrodicyclopenta [b,e]pyridin-8-yl)carbamoyl)-4-(hydroxymethyl)-2-(2-methoxypropan-2-yl)thiazole-5-sulfonimidamide]

IC50 [1]: 1000 to 5000 nM
Compound: CO[C@H]1COc2c(S(N)(=O)=NC(=O)Nc3c(C)c(C(F)(F)F)nc4c3CCC4)cnn2C1 (single isomer, unassigned) [Example 656, (R) or (S)-(6R)-6-methoxy-N′-((3-methyl-2-(trifluoromethyl)-6,7-dihydro-5H-cyclopenta[b]pyridin-4-yl)carbamoyl)-6,7-dihydro-5H-pyrazolo[5,1-b][1,3] oxazine-3-sulfonimidamide]

IC50 [1]: 5000 to 30000 nM
Compound: Cc1nc2c(c(NC(=O)N=S(N)(=O)c3sc(C(O)(CO)CO)nc3CO)c1C(F)(F)F)CCC2 (centres unmarked) [Example 587, 4-(Hydroxymethyl)-N′-((2-methyl-3-(trifluoromethyl)-6,7-dihydro-5H-cyclopenta[b]pyridin-4-yl)calbamoyl)-2-(1,2,3-trihydroxypropan-2-yl)thiazole-5-sulfonimidamide]

IC50 [5]: 200 to 1000 nM
Compound: COCc1nc(C(C)(C)O)sc1S(N)(=O)=NC(=O)Nc1c2c(nc3c1CCC3(C)C)CCC2 (single isomer, unassigned) [Compound 170a]

IC50 (Table B1, class symbols, read-out: Average IC50 of compounds in hTHP-1 assay: hTHP-1 IC50): 5000 to 30000 nM
Compound: CC1CCc2c1nc1c(c2NC(=O)N=S(N)(=O)c2ccc(CN(C)C)cc2)CCC1 (single isomer, unassigned) [Compound 134bb, (R,S) or (R,R)-4-((dimethyl-amino)methyl)-N′-((3-methyl-1,2,3,5,6,7-hexa-hydrodicyclo-penta[b,e]pyridin-8-yl)carbamoyl)benzene-sulfonamidamide]

IC50 [2]: 1000 to 5000 nM
Compound: CCn1ccc(S(N)(=O)=NC(=O)Nc2c3c(nc(C4CC4)c2C2CC2)CCC3)n1 (centres unmarked) [Compound 726]

IC50 (Table B2, numeric bounds, read-out: hTHP-1 IC50): > 30000 nM
Compound: CC1CCc2c1nc1c(c2NC(=O)N=S(N)(=O)c2cn(C(C)C)cn2)CCC1 (single isomer, unassigned) [Compound 660a, (R, S) or (S, S) or (S, R) or (R, R)-1-Isopropyl-N′-((3-metliyl-1,2,3,5,6,7-hexahydrodicyclopenta [b,e]pyridin-8-yl)carbamoyl)-1H-imidazole-4-sulfonimidamide]

IC50 [3]: > 30000 nM
Compound: Cc1c(C2CCC2)nc2c(c1NC(=O)N=S(N)(=O)c1cc(C(C)(C)O)cs1)CCC2 (single isomer, unassigned) [Compound 658a, (S) or (R)-N′-((2-cyclobutyl-3-methyl-6,7-dihydro-5H-cyclopenta[b]pyridin-4-yl)carbamoyl)-4-(2-hydroxypropan-2-yl)thiophene-2-sulfonimidamide]

IC50 [2]: 5000 to 30000 nM
Compound: Cc1c(C2CC2)nc2c(c1NC(=O)N=S(N)(=O)c1sc(C(C)(C)O)nc1CO)CCC2 (centres unmarked) [Compound 679, N′-((2-cyclopropyl-3-methyl-6,7-dihydro-5H-cyclopenta[b]pyridin-4-yl)carbamoyl)-4-(hydroxymethyl)-2-(2-hydroxypropan-2-yl)thiazole-5-sulfonimidamide]

IC50 [4]: 40 to 200 nM
Compound: NS(=O)(=NC(=O)Nc1c2c(nc(C(F)(F)F)c1C1CC1)CCC2)c1nn(C(F)F)cc1F (single isomer, unassigned) [Example 775, (R) or (S)-N′-((3-cyclopropyl-2-(trifluoromethyl)-6,7-dihydro-5H-cyclopenta[b]pyridin-4-yl)carbamoyl)-1-(difluoromethyl)-4-fluoro-1H-pyrazole-3-sulfonimidamide]

IC50 [6]: < 8 nM
Compound: CCn1cc(F)c(S(N)(=O)=NC(=O)Nc2c3c(nc4c2CCC4(C)C)CCC3)n1 (single isomer, unassigned) [Example 715, (R) or (S)-N′-((3,3-dimethyl-1,2,3,5,6,7-hexahydrodicyclopenta[b,e]pyridin-8-yl)carbamoyl)-1-ethyl-4-fluoro-1H-pyrazole-3-sulfonimidamide]
